For experiment [1], the system named is non-small cell lung cancer cell line H460. The experiment in a line: H460 proliferation assay in the presence of 3 uM ASP9521 (AKR1C3 specific inhibitor). In kind it is cell-based, human. The following applies: H460 cells, CellTiter-Glo, 72 hours, in the presence of 3 uM ASP9521 added 4 hours prior to compounds; read-out: CTG H460: Avg IC50 (nM) [Assay Condition: ASP9521]. In a few lines:
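AKR1C3 blocked with 3 uM ASP9521 given 4 h ahead of test compounds. H460 cells, plated 24 h earlier, were then treated for 72 h at 37 °C in 5% CO2. CellTiter-Glo luminescence gave viability.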

For experiment [2] the test system is unchanged. The experiment in a line: In vitro human cancer cell line cytotoxicity (proliferation) assay in H460, CellTiter-Glo, 72 hours. The following applies: DMSO condition (no AKR1C3 inhibitor), read-out: CTG H460: Avg IC50 (nM) [Assay Condition: DMSO]. In kind it is cell-based. In a few lines:
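IC50s in nM come from CellTiter-Glo viability read after 72 h of compound exposure. Compounds went in from 10 mM DMSO stocks onto H460 cells, which had been plated at 3×10^3 per well and grown 24 h beforehand at 37 °C, 5% CO2.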
(In general: ATP-based viability assays read luminescence as a measure of living cells.)

[3] abbreviates: Homo sapiens, NCI-H460, 72 h, H460 cells.
[4] abbreviates: Homo sapiens, NCI-H460, H460 cells.

Regarding `Cc1nc(-c2cccc(Oc3c([N+](=O)[O-])ccc4c3CCC4OP(=O)(N3CC3)N3CC3)c2)no1` (centres unmarked) [Example 89], the IC50 (usually the point on the concentration scale where inhibition reaches its midpoint) was 6150 nM in experiment [1] and 10 to 50 nM in experiment [2] (H460 cells).

For `O=C1COCCN1c1cccc(Oc2c([N+](=O)[O-])ccc3c2CCC3OP(=O)(N2CC2)N2CC2)c1` (centres unmarked) [Example 109], the IC50 in experiment [1] is 6450 nM; in experiment [2] (setting [3]) it was 10 to 50 nM.

In the case of `Cc1nc2cc(Oc3c([N+](=O)[O-])ccc4c3CCC4OP(=O)(N3CC3)N3CC3)ccc2n1C` (centres unmarked) [Example 388], the values for the concentration for half-maximal inhibition (IC50) in experiment [1] and in experiment [2] (setting [3]) were 1430 nM and less than 10 nM, respectively.

For the molecule `O=C1c2cc(Oc3cc4c(cc3[N+](=O)[O-])CCC4OP(=O)(N3CC3)N3CC3)ccc2CN1C1CC1` (single isomer, unassigned) [Example 171], the figures for the 50% inhibitory concentration (IC50) in experiment [1] and in experiment [2] (H460 cells) were 1100 nM and less than 10 nM, respectively.

`O=[N+]([O-])c1cc2c(cc1Oc1ccc(-c3cccnc3)cc1)C(OP(=O)(N1CC1)N1CC1)CC2` (centres unmarked) [Example 515]: the IC50 in experiment [1] was 7150 nM; in experiment [2] (H460 cells), 10 to 50 nM.

Take `O=[N+]([O-])c1ccc2c(c1Oc1ccc(OC3CCCC3)cc1)CCC2OP(=O)(N1CC1)N1CC1` (centres unmarked) [Example 491]: the half-maximal inhibitory concentration (IC50) in experiment [1] was 1940 nM; in experiment [2] (H460 cells), less than 10 nM.

For the molecule `O=C(NC1CCC1)c1ccc(Oc2cc3c(cc2[N+](=O)[O-])CCC3OP(=O)(N2CC2)N2CC2)cc1` (centres unmarked) [Example 191], the IC50 in experiment [1] is 661 nM; in experiment [2] (H460 cells) it was less than 10 nM.

`C[C@H]1CN1P(=O)(OCc1c(F)c(F)c(OCc2ccc([N+](=O)[O-])c(Oc3ccc(C(=O)N(C)C)cc3)c2)c(F)c1F)N1C[C@@H]1C` (some centres unmarked) [Example 14]: the figures for the concentration for half-maximal inhibition (IC50) in experiment [1] and in experiment [2] (setting [3]) were 553 nM and less than 10 nM, respectively.

Consider `O=[N+]([O-])c1ccc2c(c1Oc1ccc(-c3ncc(F)cn3)cc1)CC[C@@H]2OP(=O)(N1CC1)N1CC1` (single isomer, unassigned) [Example 265], for which the values for the half-maximal inhibitory concentration (IC50) in experiment [1] and in experiment [2] (setting [3]) were 1300 nM and less than 10 nM, respectively.

As for `Cc1cnn(-c2cccc(Oc3c([N+](=O)[O-])ccc4c3CC[C@@H]4OP(=O)(N3CC3)N3CC3)c2)c1` [Example 429], the IC50 in experiment [1] is 1960 nM; in experiment [2] (setting [3]) it was less than 10 nM.

With `CN(C)C(=O)c1cccc(Oc2cc3cc(COP(=O)(N4CC4)N4CC4)oc3cc2[N+](=O)[O-])c1` [Example 229, (5-(3-(dimethylcarbamoyl)phenoxy)-6-nitrobenzofuran-2-yl)methyl di(aziridin-1-yl)phosphinate], the half-inhibitory concentration (IC50) in experiment [1] was 515 nM; in experiment [2] (setting [3]), less than 10 nM.

As for `O=[N+]([O-])c1ccc2c(c1Oc1ccc(F)c(-c3ccccn3)c1)CC[C@@H]2OP(=O)(N1CC1)N1CC1` [Example 337], the results for the IC50 in experiment [1] and in experiment [2] (H460 cells) were 5800 nM and 10 to 50 nM, respectively.

As for `O=C1CCCN1c1cc(Oc2c([N+](=O)[O-])ccc3c2CCC3OP(=O)(N2CC2)N2CC2)ccc1F` (centres unmarked) [Example 427], the results for the half-inhibitory concentration (IC50) in experiment [1] and in experiment [2] (H460 cells) were 756 nM and less than 10 nM, respectively.

`C[C@@H](OP(=O)(N1CC1)N1CC1)c1cc2cc(Oc3ccc4c(c3)CN(C)C4=O)c([N+](=O)[O-])cc2o1` [Example 564]: the IC50 in experiment [1] was 2690 nM; in experiment [2] (H460 cells), 10 to 50 nM.

As for `C[C@@H]1CN1P(=O)(OCc1c(F)c(F)c(OCc2ccc([N+](=O)[O-])c(Oc3cccc(C(=O)N(C)C)c3)c2)c(F)c1F)N1C[C@H]1C` (some centres unmarked) [Example 13], the values for the IC50 in experiment [1] and in experiment [2] (setting [3]) were 195 nM and less than 10 nM, respectively.

Regarding `Cn1c(=O)oc2ccc(Oc3c([N+](=O)[O-])ccc4c3CCC4OP(=O)(N3CC3)N3CC3)cc21` (single isomer, unassigned) [Example 65], the values for the IC50 in experiment [1] and in experiment [2] (H460 cells) were 279 nM and less than 10 nM, respectively.

In the case of `O=C(c1cccc(Oc2c([N+](=O)[O-])ccc3c2CCC3OP(=O)(N2CC2)N2CC2)c1)N1CCCC1` (centres unmarked) [Example 99], the results for the IC50 in experiment [1] and in experiment [2] (setting [3]) were 1010 nM and less than 10 nM, respectively.

Turning to `Cc1cc2cc(Oc3c([N+](=O)[O-])ccc4c3CC[C@H]4OP(=O)(N3CC3)N3CC3)ccc2n1C` [Example 391], the half-inhibitory concentration (IC50) is 1810 nM in experiment [1] and less than 10 nM in experiment [2] (setting [3]).

Regarding `COc1ccc(Oc2c([N+](=O)[O-])ccc3c2CCC3OP(=O)(N2CC2)N2CC2)cc1-c1ccc(F)cn1` (centres unmarked) [Example 339], the half-maximal inhibitory concentration (IC50) is 1360 nM in experiment [1] and less than 10 nM in experiment [2] (H460 cells).

As to `O=C1OCCN1c1cccc(Oc2c([N+](=O)[O-])ccc3c2CCC3OP(=O)(N2CC2)N2CC2)c1` (centres unmarked) [Example 70], the 50% inhibitory concentration (IC50) in experiment [1] is 380 nM; in experiment [2] (setting [4]) it was less than 10 nM.

For the molecule `C[C@H](OP(=O)(N1CC1)N1CC1)c1cc2cc(Oc3cccc(C4CC4)c3)c([N+](=O)[O-])cc2o1` [Example 562], the IC50 was 3040 nM in experiment [1] and less than 10 nM in experiment [2] (H460 cells).

As for `O=[N+]([O-])c1cc2oc(COP(=O)(N3CC3)N3CC3)cc2cc1Oc1cccc(-c2ccccc2)c1` [Example 534], the IC50 in experiment [1] was 1200 nM; in experiment [2] (setting [3]), less than 10 nM.

For the molecule `CC(C)Oc1cccc(Oc2c([N+](=O)[O-])ccc3c2CCC3OP(=O)(N2CC2)N2CC2)c1` (racemic) [Example 451], the concentration for half-maximal inhibition (IC50) is 1030 nM in experiment [1] and less than 10 nM in experiment [2] (H460 cells).

As to `O=[N+]([O-])c1ccc2c(c1Oc1cccc(OCC(F)(F)F)c1)CC[C@@H]2OP(=O)(N1CC1)N1CC1` [Example 474], the results for the 50% inhibitory concentration (IC50) in experiment [1] and in experiment [2] (H460 cells) were 918 nM and less than 10 nM, respectively.

Take `CN(C(=O)c1cccc(Oc2c([N+](=O)[O-])ccc3c2CCC3OP(=O)(N2CC2)N2CC2)c1)c1cnn(C)c1` (racemic) [Example 251]: the IC50 is 1090 nM in experiment [1] and less than 10 nM in experiment [2] (H460 cells).

As to `Cn1cnc2cc(Oc3c([N+](=O)[O-])ccc4c3CC[C@@H]4OP(=O)(N3CC3)N3CC3)ccc21` [Example 396], the IC50 in experiment [1] was 2480 nM; in experiment [2] (setting [4]), 10 to 50 nM.

`O=[N+]([O-])c1cc2c(cc1Oc1ccc(-c3ccccc3)nc1)C(OP(=O)(N1CC1)N1CC1)CC2` (centres unmarked) [Example 518]: the values for the IC50 in experiment [1] and in experiment [2] (H460 cells) were 746 nM and less than 10 nM, respectively.

Take `O=[N+]([O-])c1ccc2c(c1Oc1cncc(C3CC3)c1)CC[C@@H]2OP(=O)(N1CC1)N1CC1` [Example 319]: the figures for the half-maximal inhibitory concentration (IC50) in experiment [1] and in experiment [2] (setting [3]) were 521 nM and less than 10 nM, respectively.

On to `O=[N+]([O-])c1ccc2c(c1Oc1ccc(F)c(S(=O)(=O)C3CC3)c1)CC[C@@H]2OP(=O)(N1CC1)N1CC1` [Example 513], for which the half-maximal inhibitory concentration (IC50) in experiment [1] was 682 nM; in experiment [2] (setting [3]), less than 10 nM.

For `Cn1c(=O)n(C)c2cc(Oc3c([N+](=O)[O-])ccc4c3CCC4OP(=O)(N3CC3)N3CC3)ccc21` (centres unmarked) [Example 93], the half-maximal inhibitory concentration (IC50) in experiment [1] is 878 nM; in experiment [2] (H460 cells), no less than 100 nM.

Regarding `O=[N+]([O-])c1ccc2c(c1Oc1ccc(-c3ncc(F)cn3)cc1)CC[C@H]2OP(=O)(N1CC1)N1CC1` (single isomer, unassigned) [Example 266], the IC50 in experiment [1] is 716 nM; in experiment [2] (setting [3]) it was 10 to 50 nM.

As to `O=C1c2cc(Oc3cc4c(cc3[N+](=O)[O-])OCCC4OP(=O)(N3CC3)N3CC3)ccc2CN1C1CC1` (single isomer, unassigned) [Example 204], the results for the IC50 in experiment [1] and in experiment [2] (H460 cells) were 1550 nM and 10 to 50 nM, respectively.

Take `CN(C)C(=O)c1ccc(Oc2cc3c(cc2[N+](=O)[O-])CCC3OP(=O)(N2CC2)N2CC2)cc1` (single isomer, unassigned) [Example 140]: the results for the 50% inhibitory concentration (IC50) in experiment [1] and in experiment [2] (setting [3]) were 436 nM and less than 10 nM, respectively.

In the case of `C[C@@H](OP(=O)(N1CC1)N1CC1)c1cc2cc(Oc3cccc(C4CC4)c3)c([N+](=O)[O-])cc2o1` [Example 561], the half-inhibitory concentration (IC50) in experiment [1] was 4230 nM; in experiment [2] (H460 cells), 10 to 50 nM.
